Source: US11414424B2, “Cardiac sarcomere inhibitors” (Cytokinetics, Inc., priority 2018, dated 2022)

test system: bovine cardiac myofibrils; assay: Myofibril assay: PK/LDH-coupled steady-state ATPase activity of skinned bovine cardiac myofibrils; type: biochemical; details: Ca2+ activating to 75% of maximal rate
Summary of the method: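 Steady-state ATPase of detergent-skinned bovine left-ventricular myofibrils (1 mg/mL), PK/LDH-coupled NADH read at 340 nm, in PIPES/MgCl2 buffer pH 6.8 with 50 μM ATP, 0.6 mM EGTA and CaCl2 set for 50% or 75% activation. Inhibition of activity measured.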

SMILES | CDMF75 IC15 [µM]
O=C1CN(c2ncc(Cl)cc2F)C(=O)C2(CC2)N1Cc1ccc(C(F)(F)F)cc1 [Compound 550, 7-(5-chloro-3-fluoropyridin-2-yl)-4-(4-(trifluoromethyl)benzyl)-4,7-diazaspiro[2.5]octane-5,8-dione] | 0.8
O=C1CN(c2ncc(Cl)cc2F)C(=O)C2(COC2)N1Cc1ccc(C(F)(F)F)cc1 [Compound 551, 8-(5-chloro-3-fluoropyridin-2-yl)-5-(4-(trifluoromethyl)-benzyl)-2-oxa-5,8-diazaspiro[3.5]nonane-6,9-dione] | 2.48
CNC(=O)N1CC2(C1)C(=O)N(c1ncc(Cl)cc1F)CC(=O)N2Cc1ccc(C(F)(F)F)cc1 [Compound 552, 8-(5-chloro-3-fluoropyridin-2-yl)-N-methyl-6,9-dioxo-5-(4-(trifluoromethyl)-benzyl)-2,5,8-triazaspiro-[3.5]nonane-2-carboxamide] | 0.5
O=C1CN(c2ncc(Cl)cc2F)C(=O)C2(CCOC2)N1Cc1ccc(C(F)(F)F)cc1 (stereo not shown) [Compound 553, 9-(5-chloro-3-fluoropyridin-2-yl)-6-(4-(trifluoromethyl)-benzyl)-2-oxa-6,9-diazaspiro[4.5]decane-7,10-dione] | 1.4
CC(C)[C@H]1C(=O)N(c2ncc(Cl)cc2F)CC(=O)N1Cc1ccc(C(F)(F)F)cc1 [Compound 554, (S)-1-(5-chloro-3-fluoro-pyridin-2-yl)-3-isopropyl-4-(4-(trifluoromethyl)-benzyl)piperazine-2,5-dione] | 0.4
O=C1[C@H](C2CCC2)N(Cc2ccc(C(F)(F)F)cc2)C(=O)CN1c1ncc(Cl)cc1F [Compound 555, (S)-1-(5-chloro-3-fluoro-pyridin-2-yl)-3-cyclobutyl-4-(4-(trifluoromethyl)-benzyl)piperazine-2,5-dione] | 0.9
C[C@@H](c1ccc(Cl)cc1)N1C(=O)CN(c2ncc(Cl)cc2F)C(=O)C12COC2 [Compound 558] | 7.04
C[C@@H](c1ccc(Cl)cc1)N1C(=O)CN(c2ncc(Cl)cc2F)C(=O)C12CN(C(=O)NC1CCOCC1)C2 [Compound 562, (S)-8-(5-chloro-3-fluoro-pyridin-2-yl)-5-(1-(4-chlorophenyl)ethyl)-6,9-dioxo-N-(tetrahydro-2H-pyran-4-yl)-2,5,8-triazaspiro[3.5]nonane-2-carboxamide] | 29.0
CC(=O)N1CCC2(CC1)C(=O)N(c1ncc(Cl)cc1F)CC(=O)N2Cc1ccc(C(F)(F)F)cc1 [Compound 572, 9-acetyl-4-(5-chloro-3-fluoropyridin-2-yl)-1-(4-(trifluoromethyl)benzyl)-1,4,9-triazaspiro[5.5]-undecane-2,5-dione] | 7.4
CC1(CO)C(=O)N(c2ncc(Cl)cc2F)CC(=O)N1Cc1ccc(C(F)(F)F)cc1 (stereo not shown) [Compound 573, 1-(5-chloro-3-fluoropyridin-2-yl)-3-(hydroxymethyl)-3-methyl-4-(4-(trifluoro-methyl)benzyl)piperazine-2,5-dione] | 6.5
O=C1CN(c2ncc(Cl)cc2F)C(=O)C2(CC(F)C2)N1Cc1ccc(C(F)(F)F)cc1 (stereo not shown) [Compound 574, 8-(5-chloro-3-fluoropyridin-2-yl)-2-fluoro-5-(4-(trifluoromethyl)benzyl)-5,8-diazaspiro[3.5]nonane-6,9-dione] | 0.3
O=C1CN(c2ncc(Cl)cc2F)C(=O)C2(COC2)N1Cc1ccc(Cl)cc1 [Compound 575, 8-(5-chloro-3-fluoropyridin-2-yl)-5-(4-chlorobenzyl)-2-oxa-5,8-diazaspiro[3.5]nonane-6,9-dione] | 1.5
CC1(C)C(=O)N(c2ncc(Cl)cc2F)CC(=O)N1Cc1ccc(Cl)cc1 [Compound 576, 1-(5-chloro-3-fluoropyridin-2-yl)-4-(4-chlorobenzyl)-3,3-dimethylpiperazine-2,5-dione] | 2.2
O=C1CN(c2ncc(Cl)cc2F)C(=O)C2(CC2)N1Cc1ccc(Cl)cc1 [Compound 577, 7-(5-chloro-3-fluoropyridin-2-yl)-4-(4-chlorobenzyl)-4,7-diazaspiro[2.5]octane-5,8-dione] | 0.9
CSCCC1C(=O)N(c2ncc(Cl)cc2F)CC(=O)N1Cc1ccc(C(F)(F)F)cc1 (stereo not shown) [Compound 610, 1-(5-chloro-3-fluoropyridin-2-yl)-3-(2-(methylthio)-ethyl)-4-(4-(trifluoro-methyl)-benzyl)piperazine-2,5-dione] | 1.7
CS(=O)(=O)CCC1C(=O)N(c2ncc(Cl)cc2F)CC(=O)N1Cc1ccc(C(F)(F)F)cc1 (stereo not shown) [Compound 612, 1-(5-chloro-3-fluoropyridin-2-yl)-3-(2-(methylsulfonyl)-ethyl)-4-(4-(trifluoro-methyl)benzyl)piperazine-2,5-dione] | 13.6

Results, then the molecule that gave them:

CDMF75 IC15 [µM] | SMILES
2.7 | CC(=O)N1CC2(C1)C(=O)N(c1ncc(Cl)cc1F)CC(=O)N2[C@@H](C)c1ccc(Cl)cc1 [Compound 556, (S)-2-acetyl-8-(5-chloro-3-fluoropyridin-2-yl)-5-(1-(4-chlorophenyl)ethyl)-2,5,8-triazaspiro[3.5]nonane-6,9-dione]
25.1 | C[C@@H](c1ccc(Cl)cc1)N1C(=O)CN(c2ncc(Cl)cc2F)C(=O)C12CN(C(=O)NC1CC1)C2 [Compound 559, (S)-8-(5-chloro-3-fluoro-pyridin-2-yl)-5-(1-(4-chlorophenyl)ethyl)-N-cyclopropyl-6,9-dioxo-2,5,8-triazaspiro[3.5]-nonane-2-carboxamide]
8.6 | CCNC(=O)N1CC2(C1)C(=O)N(c1ncc(Cl)cc1F)CC(=O)N2[C@@H](C)c1ccc(Cl)cc1 [Compound 560, (S)-8-(5-chloro-3-fluoro-pyridin-2-yl)-5-(1-(4-chlorophenyl)ethyl)-N-ethyl-6,9-dioxo-2,5,8-triazaspiro[3.5]nonane-2-carboxamide]
19.8 | CC(C)NC(=O)N1CC2(C1)C(=O)N(c1ncc(Cl)cc1F)CC(=O)N2[C@@H](C)c1ccc(Cl)cc1 [Compound 561, (S)-8-(5-chloro-3-fluoro-pyridin-2-yl)-5-(1-(4-chlorophenyl)ethyl)-N-isopropyl-6,9-dioxo-2,5,8-triazaspiro[3.5]nonane-2-carboxamide]
2.2 | CNC(=O)N1CC2(C1)C(=O)N(c1ncc(Cl)cc1F)CC(=O)N2[C@@H](C)c1ccc(Cl)cc1 [Compound 563, (S)-8-(5-chloro-3-fluoro-pyridin-2-yl)-5-(1-(4-chlorophenyl)ethyl)-N-methyl-6,9-dioxo-2,5,8-triazaspiro[3.5]nonane-2-carboxamide]
13.0 | CC(=O)N1CC2(C1)C(=O)N(c1ncc(C(F)F)cc1F)CC(=O)N2[C@@H](C)c1ccc(Cl)cc1 [Compound 564, (S)-2-acetyl-5-(1-(4-chlorophenyl)ethyl)-8-(5-(difluoromethyl)-3-fluoropyridin-2-yl)-2,5,8-triazaspiro[3.5]nonane-6,9-dione]
17.8 | CC(=O)N1CC2(C1)C(=O)N(c1ncc(C(F)(F)F)cc1F)CC(=O)N2[C@@H](C)c1ccc(Cl)cc1 [Compound 565, (S)-2-acetyl-5-(1-(4-chlorophenyl)ethyl)-8-(3-fluoro-5-(trifluoromethyl)-pyridin-2-yl)-2,5,8-triazaspiro[3.5]nonane-6,9-dione]
4.0 | C[C@@H](c1ccc(Cl)cc1)N1C(=O)CN(c2ncc(Cl)cc2F)C(=O)C12CN(CC(F)F)C2 [Compound 566, (S)-8-(5-chloro-3-fluoro-pyridin-2-yl)-5-(1-(4-chlorophenyl)ethyl)-2-(2,2-difluoroethyl)-2,5,8-triazaspiro[3.5]nonane-6,9-dione]
1.2 | COC(=O)N1CC2(C1)C(=O)N(c1ncc(Cl)cc1F)CC(=O)N2[C@@H](C)c1ccc(Cl)cc1 [Compound 567, methyl (S)-8-(5-chloro-3-fluoropyridin-2-yl)-5-(1-(4-chlorophenyl)ethyl)-6,9-dioxo-2,5,8-triazaspiro-[3.5]nonane-2-carboxylate]
1.2 | C[C@@H](c1ccc(Cl)cc1)N1C(=O)CN(c2ncc(Cl)cc2F)C(=O)C12CN(C=O)C2 [Compound 568, (S)-8-(5-chloro-3-fluoro-pyridin-2-yl)-5-(1-(4-chlorophenyl)ethyl)-6,9-dioxo-2,5,8-triazaspiro-[3.5]nonane-2-carbaldehyde]
2.6 | C[C@@H](c1ccc(Cl)cc1)N1C(=O)CN(c2ncc(Cl)cc2F)C(=O)C12CN(C(=O)OCC(F)F)C2 [Compound 569, 2,2-difluoroethyl (S)-8-(5-chloro-3-fluoropyridin-2-yl)-5-(1-(4-chlorophenyl)-ethyl)-6,9-dioxo-2,5,8-triazaspiro[3.5]nonane-2-carboxylate]
2.2 | CC(=O)N1CC2(C1)C(=O)N(c1ncc(Cl)cc1F)CC(=O)N2[C@@H](C)c1ccc(C(F)(F)F)cc1 [Compound 570, (S)-2-acetyl-8-(5-chloro-3-fluoropyridin-2-yl)-5-(1-(4-(trifluoromethyl)phenyl)-ethyl)-2,5,8-triazaspiro-[3.5]nonane-6,9-dione]
2.0 | CC(=O)N1CC2(C1)C(=O)N(c1ncc(Br)cc1F)CC(=O)N2[C@@H](C)c1ccc(C(F)(F)F)cc1 [Compound 571, (S)-2-acetyl-8-(5-bromo-3-fluoropyridin-2-yl)-5-(1-(4-(trifluoromethyl)phenyl)-ethyl)-2,5,8-triazaspiro-[3.5]nonane-6,9-dione]
1.3 | CNC(=O)N1CC2(C1)C(=O)N(c1ncc(Cl)cc1F)CC(=O)N2[C@@H](C)c1ccc(C(F)(F)F)cc1 [Compound 592, (S)-8-(5-chloro-3-fluoro-pyridin-2-yl)-N-methyl-6,9-dioxo-5-(1-(4-(trifluoromethyl)phenyl)-ethyl)-2,5,8-triazaspiro-[3.5]nonane-2-carboxamide]
2.3 | C[C@@H](c1ccc(C(F)(F)F)cc1)N1C(=O)CN(c2ncc(Cl)cc2F)C(=O)C12CN(CC(F)F)C2 [Compound 593, (S)-8-(5-chloro-3-fluoro-pyridin-2-yl)-2-(2,2-difluoroethyl)-5-(l-(4-(trifluoromethyl)phenyl)-ethyl)-2,5,8-triazaspiro-[3.5]nonane-6,9-dione]
